ChEMBL document CHEMBL2029292, “Identification of novel adenosine A(2A) receptor antagonists by virtual screening” (J Med Chem, 2012)

Legend:
Adenosine receptor A2a = Adenosine receptor A2a (Homo sapiens, UniProt P29274); test: Displacement of [3H]ZM241385 from human A2A receptor expressed in HEK293 cells after 1 hr by liquid scintillation counting; format: cell-based
HEK293 = test: Selectivity ratio of Ki for human A1 receptor expressed in CHO cells to Ki for human A2A receptor expressed in HEK293 cells; format: cell-based

Chain of Adenosine receptor A2a (P29274 whole entry): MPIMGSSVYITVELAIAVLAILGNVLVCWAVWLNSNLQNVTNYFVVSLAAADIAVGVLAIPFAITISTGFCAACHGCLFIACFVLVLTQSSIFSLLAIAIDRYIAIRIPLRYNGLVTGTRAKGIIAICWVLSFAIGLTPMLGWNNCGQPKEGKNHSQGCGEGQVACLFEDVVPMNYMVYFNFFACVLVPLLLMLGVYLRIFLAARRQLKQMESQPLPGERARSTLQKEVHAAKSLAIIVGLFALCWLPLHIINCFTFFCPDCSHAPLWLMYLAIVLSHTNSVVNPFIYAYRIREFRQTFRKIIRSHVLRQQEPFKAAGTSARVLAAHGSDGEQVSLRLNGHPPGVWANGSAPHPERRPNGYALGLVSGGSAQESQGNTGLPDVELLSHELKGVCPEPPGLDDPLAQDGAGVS

| Ki (Adenosine receptor A2a) [µM] | SMILES | Ratio Ki (HEK293) |
| --- | --- | --- |
| 0.0151 | CCc1cc2c(=O)c(-c3nc(C)cs3)coc2cc1OCC(=O)OC(C)C | > 100 |
| 2 | CC1CC(c2ccccc2)n2nc(N3C(=O)C4CC=CCC4C3=O)nc2N1 (stereo unspecified) |  |
| 1.78 | Cc1cc(O)c(C(C)C)cc1N=C1CSC(=O)N1 |  |
| 0.00347 | Cc1ccsc1/C=C/c1nc(N)nc(-c2ccccc2O)n1 | 9.5 |
| 0.708 | CSc1nc2nc3c(c(O)n2n1)CN(Cc1ccccc1)CC3 |  |
| 0.00102 | CN1CCN(C(=O)c2cccc(-c3nc(N)nc(-c4ccccc4O)n3)c2)CC1 | 59 |
| 4.68 | O=C(c1ccc(F)cc1)c1c[nH]c(C(=O)NCCCn2ccnc2)c1 |  |
| 0.0123 | CC(C)c1nc(N)nc(-c2ccccc2O)n1 | 37 |
| 7.08 | Nc1cccc(CC2SC(=O)NC2=O)c1 (stereo unspecified) |  |
| 0.00158 | COC1CCN(c2cccc(-c3nc(N)nc(-c4ccccc4O)n3)c2)CC1 | 19 |
| 2.95 | COc1ccc(N2CC(C(=O)NC(Cc3ccccc3)C(=O)O)CC2=O)cc1 (stereo unspecified) |  |
| 2.4 | NC(c1csc(Nc2nncc3ccccc23)n1)c1ccccc1Cl (stereo unspecified) |  |
| 1.23 | COCCN1C(=O)c2[nH]nc(-c3ccccc3O)c2C1c1ccc(F)cc1 (stereo unspecified) |  |
| 2.24 | Cc1csc(-c2coc3cc(OCC(=O)O)cc(C)c3c2=O)n1 |  |
| 0.0339 | CC(=O)Oc1cc(C)c2c(=O)c(-c3nc(C)cs3)coc2c1 | 13 |
